Data taken from ChEMBL document CHEMBL1201862, “PubChem BioAssay data set” (2004).
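Values below derive from 48-hour exposures of cells grown in 96-well plates, with endpoints linearly interpolated between the two concentrations bracketing the appropriate inhibition level. The concentration for 50% growth inhibition is given as GI50.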 Calls of active or inactive are those of the source. Cut-off read from the data, not from the text of the source: active = GI50 up to about 1.1 µM and inactive = higher.

What was measured:
Assay in all cases: inhibition of tumour cell growth, NCI panel, 48 h
IGROV-1 = system: IGROV-1
M14 = system: M14
786-0 = system: 786-0
LOX IMVI = system: LOX IMVI
SF-539 = system: SF-539
RXF 393 = system: RXF 393
DU-145 = system: DU-145
TK-10 = system: TK-10
SW-620 = system: SW-620
CCRF-CEM = system: CCRF-CEM
Hs-578T = system: Hs-578T
HL-60 = system: HL-60
U-251 = system: U-251
SK-OV-3 = system: SK-OV-3
MDA-MB-435 = system: MDA-MB-435
ACHN = system: ACHN
HOP-62 = system: HOP-62
OVCAR-5 = system: OVCAR-5
A498 = system: A498

Row | Structure (SMILES) | GI50 (IGROV-1) | GI50 (M14) | GI50 (786-0) | GI50 (LOX IMVI) | GI50 (SF-539) | GI50 (RXF 393) | GI50 (DU-145) | GI50 (TK-10) | GI50 (SW-620) | GI50 (CCRF-CEM) | GI50 (Hs-578T) | GI50 (HL-60) | GI50 (U-251) | GI50 (SK-OV-3) | GI50 (MDA-MB-435) | GI50 (ACHN) | GI50 (HOP-62) | GI50 (OVCAR-5) | GI50 (A498)
1 | CC1(C)C(c2ccccc2)=[N+]([O-])C(C)(C)N1O | > 10 µM (inactive) | > 10 µM (inactive) | > 10 µM (inactive) | > 10 µM (inactive) | > 10 µM (inactive) | > 10 µM (inactive) | > 10 µM (inactive) | > 10 µM (inactive) | > 10 µM (inactive) | > 10 µM (inactive) | > 10 µM (inactive) | > 10 µM (inactive) | > 10 µM (inactive) | > 10 µM (inactive) | > 10 µM (inactive) | > 10 µM (inactive) | > 10 µM (inactive) | > 10 µM (inactive) | > 10 µM (inactive)
2 | N#C/C(C(=O)Nc1ccccc1)=C(/N)N1CCCC1 | > 100 µM (inactive) | > 100 µM (inactive) | > 100 µM (inactive) | > 100 µM (inactive) | > 100 µM (inactive) | > 100 µM (inactive) | > 100 µM (inactive) | > 100 µM (inactive) | > 100 µM (inactive) | > 100 µM (inactive) | > 100 µM (inactive) | > 100 µM (inactive) | > 100 µM (inactive) | > 100 µM (inactive) | > 100 µM (inactive) | > 100 µM (inactive) | > 100 µM (inactive) | > 100 µM (inactive) | > 100 µM (inactive)
3 | O=[N+]([O-])c1ccc2[nH]c(=S)[nH]c(=S)c2c1 | > 100 µM (inactive) | > 100 µM (inactive) | > 100 µM (inactive) | > 100 µM (inactive) | > 100 µM (inactive) | > 100 µM (inactive) | > 100 µM (inactive) | > 100 µM (inactive) | > 10 µM (inactive) | > 100 µM (inactive) | > 100 µM (inactive) | > 100 µM (inactive) | > 100 µM (inactive) | > 100 µM (inactive) | > 100 µM (inactive) | > 100 µM (inactive) | > 100 µM (inactive) | > 100 µM (inactive) | > 100 µM (inactive)
4 | Cc1c2c(OCCCCN3CCN(c4ncccn4)CC3)nn(C)c(=O)c2c(C)n1-c1ccccc1 | 17.8 µM (inactive) | 20.7 µM (inactive) | 18.1 µM (inactive) | 20.4 µM (inactive) | 17.6 µM (inactive) | 18.6 µM (inactive) | 17.1 µM (inactive) | 19 µM (inactive) | 25.6 µM (inactive) | 31.1 µM (inactive) | 26.2 µM (inactive) | 21.1 µM (inactive) | 18.1 µM (inactive) | 18.7 µM (inactive) | 18.7 µM (inactive) | 17.4 µM (inactive) | 25.7 µM (inactive) | 20.5 µM (inactive) | 16.9 µM (inactive)
5 | Cn1c(=O)c2c([nH]/c(=N/N=C/c3ccccc3C(=O)O)n2C)n(C)c1=O | > 100 µM (inactive) | > 100 µM (inactive) | > 100 µM (inactive) | > 100 µM (inactive) | > 100 µM (inactive) | > 100 µM (inactive) | > 100 µM (inactive) | > 100 µM (inactive) | > 100 µM (inactive) | > 100 µM (inactive) | > 100 µM (inactive) | > 100 µM (inactive) | > 100 µM (inactive) | > 100 µM (inactive) | > 100 µM (inactive) | > 100 µM (inactive) | > 100 µM (inactive) | > 100 µM (inactive) | > 100 µM (inactive)
6 | CN(CCCNC(=O)c1nn(-c2ccc(Cl)cc2Cl)c2c1ccc1ccccc12)CCCNC(=O)c1nn(-c2ccc(Cl)cc2Cl)c2c1ccc1ccccc12 | 1.74 µM (inactive) | 1.6 µM (inactive) | 1.54 µM (inactive) | 1.69 µM (inactive) | 1.76 µM (inactive) | 1.66 µM (inactive) | 1.77 µM (inactive) | 1.89 µM (inactive) | 2.26 µM (inactive) | 1.92 µM (inactive) | 1.44 µM (inactive) | 0.322 µM (active) | 1.69 µM (inactive) | 2 µM (inactive) | 1.71 µM (inactive) | 1.66 µM (inactive) | 1.77 µM (inactive) | 1.89 µM (inactive) | 1.43 µM (inactive)
7 | COC(=O)/C=c1/c2ccccc2n2c1c1ccccc1[n+]2C | 3.56 µM (inactive) | 3.99 µM (inactive) | 2.99 µM (inactive) | 4.27 µM (inactive) | 3.82 µM (inactive) | 4.54 µM (inactive) | 6.41 µM (inactive) | 2.67 µM (inactive) | 2.76 µM (inactive) | 3.3 µM (inactive) | 2.64 µM (inactive) | 2.84 µM (inactive) | 2.61 µM (inactive) | 2.67 µM (inactive) | 4.2 µM (inactive) | 3.92 µM (inactive) | 3.05 µM (inactive) | 4.6 µM (inactive) | 4.18 µM (inactive)
8 | Cc1nc2c3c(ncn2n1)Oc1c(c(-c2ccccc2)nn1-c1ccccc1)C3c1ccc(Cl)cc1 (stereo not given) | > 100 µM (inactive) | 79.3 µM (inactive) | 39 µM (inactive) | > 100 µM (inactive) | 22.3 µM (inactive) | 72.3 µM (inactive) | > 100 µM (inactive) | 39.4 µM (inactive) | > 100 µM (inactive) | > 10 µM (inactive) | 23.2 µM (inactive) | > 10 µM (inactive) | 53.6 µM (inactive) | 43.3 µM (inactive) | > 100 µM (inactive) | 40.8 µM (inactive) | 75.7 µM (inactive) | > 100 µM (inactive) | > 100 µM (inactive)
9 | COC(=O)/C=C/[C@H]1[C@H](C)N1S(=O)(=O)c1ccc(C)cc1 (stereo not given in full) | > 100 µM (inactive) | > 100 µM (inactive) | 82.4 µM (inactive) | 61.7 µM (inactive) | 37 µM (inactive) | > 100 µM (inactive) | > 100 µM (inactive) | > 100 µM (inactive) | 80.4 µM (inactive) | > 100 µM (inactive) | > 100 µM (inactive) | > 99.5 µM (inactive) | > 100 µM (inactive) | > 100 µM (inactive) | 56.5 µM (inactive) | 89.7 µM (inactive) | > 100 µM (inactive) | > 100 µM (inactive) | > 100 µM (inactive)
10 | Cc1csc(-n2nc(C)cc2C)n1 | > 100 µM (inactive) | > 100 µM (inactive) | > 100 µM (inactive) | > 100 µM (inactive) | > 100 µM (inactive) | > 100 µM (inactive) | > 100 µM (inactive) | > 100 µM (inactive) | > 100 µM (inactive) | > 100 µM (inactive) | > 100 µM (inactive) | > 100 µM (inactive) | > 100 µM (inactive) | > 100 µM (inactive) | > 100 µM (inactive) | > 100 µM (inactive) | > 100 µM (inactive) | > 100 µM (inactive) | > 100 µM (inactive)
11 | COc1ccc(N(C(=O)Nc2ccc(Cl)c(Cl)c2)c2ccccc2)cc1 | > 10 µM (inactive) | > 10 µM (inactive) | > 10 µM (inactive) | > 10 µM (inactive) | > 10 µM (inactive) | > 10 µM (inactive) | > 10 µM (inactive) | > 10 µM (inactive) | > 10 µM (inactive) | > 10 µM (inactive) | > 10 µM (inactive) | > 10 µM (inactive) | > 10 µM (inactive) | > 10 µM (inactive) | > 10 µM (inactive) | > 10 µM (inactive) | > 10 µM (inactive) | > 10 µM (inactive) | > 10 µM (inactive)
12 | COc1ccc(-c2c3ccccc3c(-c3ccc(OCCBr)cc3)c3ccccc23)cc1 | > 100 µM (inactive) | > 100 µM (inactive) | > 100 µM (inactive) | > 100 µM (inactive) | > 100 µM (inactive) | > 100 µM (inactive) | > 100 µM (inactive) | > 100 µM (inactive) | > 100 µM (inactive) | > 100 µM (inactive) | > 100 µM (inactive) | > 100 µM (inactive) | > 100 µM (inactive) | > 100 µM (inactive) | > 100 µM (inactive) | > 100 µM (inactive) | > 100 µM (inactive) | > 100 µM (inactive) | > 100 µM (inactive)
13 | O=C1NC(Nc2ccccc2)=N/C1=C\c1c(Cl)cccc1Cl | 17.8 µM (inactive) | 22.8 µM (inactive) | 15.1 µM (inactive) | 62.7 µM (inactive) | 22.1 µM (inactive) | 17.8 µM (inactive) | 24.7 µM (inactive) | 18.9 µM (inactive) | 36.1 µM (inactive) | 14.3 µM (inactive) | 25.8 µM (inactive) | 3.32 µM (inactive) | 17.9 µM (inactive) | 21.6 µM (inactive) | 32.4 µM (inactive) | 37.5 µM (inactive) | 28.2 µM (inactive) | 29 µM (inactive) | 32.3 µM (inactive)
14 | C=C1C(=O)CCC1C(=O)O (stereo not given) | > 100 µM (inactive) | > 100 µM (inactive) | > 100 µM (inactive) | > 100 µM (inactive) | > 100 µM (inactive) | > 100 µM (inactive) | > 100 µM (inactive) | > 100 µM (inactive) | > 100 µM (inactive) | > 100 µM (inactive) | > 100 µM (inactive) | > 100 µM (inactive) | > 100 µM (inactive) | > 100 µM (inactive) | > 100 µM (inactive) | > 100 µM (inactive) | > 100 µM (inactive) | > 100 µM (inactive) | > 100 µM (inactive)
15 | C=CCSSCC=C | > 71.6 µM (inactive) | 31.8 µM (inactive) | 22.5 µM (inactive) | 9.73 µM (inactive) | 29.5 µM (inactive) | 32.3 µM (inactive) | > 100 µM (inactive) | > 100 µM (inactive) | 19.1 µM (inactive) | 1.98 µM (inactive) | 27.9 µM (inactive) | 3.49 µM (inactive) | 61.4 µM (inactive) | 90.4 µM (inactive) | 32.1 µM (inactive) | > 73.6 µM (inactive) | > 71.9 µM (inactive) | 51.6 µM (inactive) | > 100 µM (inactive)
